In patent US20080045514A1 (Cytovia, Inc., priority 2006, published 2008):
Counter-ions that a name gives are not always drawn.

Legend:
Format in all cases: cell-based
[1] = system: human breast cancer cell line T-47D; experiment: Caspase cascade activation (EC50), T-47D; conditions: Homo sapiens; T47D cells; caspase cascade activation; read-out: caspase potency (EC50) T47D
Method in brief: (§1)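 Cells were resuspended at 0.65×10^6 cells/mL in medium + 10% FCS and exposed to test compound at 0.016 to 10 μM final for 48 h at 37 °C. Caspase activity was then read as fluorescence (ex 485/em 530 nm) from DEVD-R110 substrate with lysolecithin in PIPES pH 7.2, 3 h at room temperature.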

[2] = system: human hepatocellular carcinoma cell line SNU398; experiment: Caspase cascade activation (EC50), SNU398; conditions: Homo sapiens, SNU-398; SNU398 cells; caspase cascade activation; read-out: caspase potency (EC50) SNU398
Method in brief: as §1

[3] = system: human colon carcinoma cell line HCT116; experiment: Caspase cascade activation (EC50), HCT116; conditions: Homo sapiens, HCT-116; HCT116 cells; caspase cascade activation; read-out: caspase potency (EC50) HCT116
Method in brief: as §1

[4] = system: human Burkitt's lymphoma cell line Namalwa; experiment: Caspase cascade activation (EC50), Namalwa; conditions: Homo sapiens, Burkitts lymphoma cell; Namalwa cells; caspase cascade activation; read-out: caspase potency (EC50) Namalwa
Method in brief: as §1

[5] = system: human lymphoma cell line Raji; experiment: Caspase cascade activation (EC50), Raji; conditions: Homo sapiens, RAJI cells, read-out: caspase potency (EC50) RAJI
Method in brief: as §1

[6] = system: human B cell lymphoblastoid cell line Ramos; experiment: Caspase cascade activation (EC50), Ramos; conditions: Homo sapiens, RAMOS cells, read-out: caspase potency (EC50) RAMOS
Method in brief: as §1

[7] = system: human colon carcinoma cell line HCT116; experiment: Inhibition of cell proliferation (GI50), HCT116; conditions: Homo sapiens; HCT 116 cells, 48 h, CellTiter-Glo
Procedure: (§2) Human breast cancer cell lines T-47D, human hepatocellular carcinoma cell line SNU398, human colon carcinoma cell line HCT116, human lung cancer cell line H1299, human leukemia cell line K562, human lymphoma cell line Raji, human B cell lymphoblastoid cell line Ramos, and human Burkitt's lymphoma cell line Namalwa were grown and harvested as in Example 100. An aliquot of […] of cells (4.4×10^4 cells/mL) was added to a well of a 96-well microtiter plate containing 5 μL of a 10% DMSO in RPMI-1640 media solution containing 10 nM to 100 μM of 3-(2-chlorophenyl)-6-(3,4-methylenedioxyphenyl)-7H-[1,2,4]triazolo[3,4-b][1,3,4]thiadiazine (1 nM to 10 μM final). An aliquot of 45 μL of cells was added to a well of a 96-well microtiter plate containing 5 μL of a 10% DMSO in RPMI-1640 media solution without compound as the control sample for maximal cell proliferation (LMax). The samples were mixed by agitation and then incubated at 37° C. for 48 h in a 5% CO2-95% humidity incubator. After incubation, the samples were removed from the incubator and 25 μL of CellTiter-Glo™ reagent (Promega) was added. The samples were mixed by agitation and incubated at room temperature for 10-15 min. Plates were then read using a luminescent plate reader (Model SPECTRAfluor Plus, Tecan) to give Ltest values.
(§3) The samples were mixed by agitation and then incubated at 37° C. for 0.5 h in a 5% CO2-95% humidity incubator. After incubation, the samples were removed from the incubator and 25 μL of CellTiter-Glo™ reagent (Promega) was added. The samples were mixed by agitation and incubated at […] 10-15 min at room temperature in a 5% CO2-95% humidity incubator. Fluorescence was read as above, (LStart) defining luminescence for initial cell number used as baseline in GI50 determinations.
(§4) Calculation: GI50 (dose for 50% inhibition of cell proliferation) is the concentration where [(Ltest−LStart)/(LMax−LStart)]=0.5.

[8] = system: human leukemia cell line K562; experiment: Inhibition of cell proliferation (GI50), K562; conditions: Homo sapiens; K562 cells, 48 h, CellTiter-Glo
Procedure: as §2, §3, §4

[9] = system: human lymphoma cell line Raji; experiment: Inhibition of cell proliferation (GI50), Raji; conditions: Homo sapiens; Raji cells, 48 h, CellTiter-Glo
Procedure: as §2, §3, §4

[10] = system: human B cell lymphoblastoid cell line Ramos; experiment: Inhibition of cell proliferation (GI50), Ramos; conditions: Homo sapiens; Ramos cells, 48 h, CellTiter-Glo
Procedure: as §2, §3, §4

[11] = system: human Burkitt's lymphoma cell line Namalwa; experiment: Inhibition of cell proliferation (GI50), Namalwa; conditions: Homo sapiens, Burkitts lymphoma cell; Namalwa cells, 48 h, CellTiter-Glo
Procedure: as §2, §3, §4

[12] = system: human cancer cell line H1299; experiment: Caspase cascade activation (EC50), H1299; conditions: NCI-H1299, H1299 cells, read-out: caspase potency (EC50) H1299
Procedure: Human breast cancer cell lines T-47D, human hepatocellular carcinoma cell line SNU398, human colon carcinoma cell line HCT116, human cancer cell line H1299, human Burkitt's lymphoma cell line Namalwa, human lymphoma cell line Raji, and human B cell lymphoblastoid cell line Ramos were grown according to media component mixtures designated by American Type Culture Collection+10% FCS (Invitrogen Corporation), in a 5% CO2-95% humidity incubator at 37° C. T-47D and H1299 cells were maintained at a cell density between 50 and 80% confluency at a cell density of 0.1 to 0.6×10^6 cells/mL. Cells were harvested at 600×g and resuspended at 0.65×10^6 cells/mL into appropriate media+10% FCS. An aliquot of 22.5 μL of cells was added to a well of a 384-well microtiter plate containing 2.5 μL of a 10% DMSO in RPMI-1640 media solution containing 0.16 to 100 μM of 3-(2-chlorophenyl)-6-(3,4-methylenedioxyphenyl)-7H-[1,2,4]triazolo[3,4-b][1,3,4]thiadiazine or other test compound (0.016 to 10 μM final). An aliquot of 22.5 μL of cells was added to a well of a 384-well microtiter plate containing 2.5 μL of a 10% DMSO in RPMI-1640 media solution without test compound as the control sample. The samples were mixed by agitation and then incubated at 37° C. for 48 h in a 5% CO2-95% humidity incubator. After incubation, the samples were removed from the incubator and 25 μL of a solution containing 14 μM of N—(Ac-DEVD)-N′-ethoxycarbonyl-R110 (SEQ ID No.:1) fluorogenic substrate (Cytovia, Inc.; WO99/18856), 20% sucrose (Sigma), 20 mM DTT (Sigma), 200 mM NaCl (Sigma), 40 mM Na PIPES buffer pH 7.2 (Sigma), and 500 μg/mL lysolecithin (Calbiochem) was added. The samples were mixed by agitation and incubated at room temperature. Using a fluorescent plate reader (Model SPECTRAfluor Plus, Tecan), an initial reading (T=0) was made approximately 1-2 min after addition of the substrate solution, employing excitation at 485 nm and emission at 530 nm, to determine the background fluorescence of the control sample. After the 3 h incubation, the samples were read for fluorescence as above (T=3 h). Calculation: The Relative Fluorescence Unit values (RFU) were used to calculate the sample readings as follows: RFU(T=3H)−Control RFU(T=0)=Net RFU(T=3h) The activity of caspase cascade activation was determined by the ratio of the net RFU value for 3-(2-chlorophenyl)-6-(3,4-methylenedioxyphenyl)-7H-[1,2,4]triazolo[3,4-b][1,3,4]thiadiazine (Example P) or other test compound to that of control samples. The EC50 (nM) was determined by a sigmoidal dose-response calculation (Prism 3.0, GraphPad Software Inc.).

EC50 [1] [nM] | EC50 [2] [nM] | EC50 [3] [nM] | EC50 [4] [nM] | EC50 [5] [nM] | EC50 [6] [nM] | GI50 [7] [nM] | GI50 [8] [nM] | GI50 [9] [nM] | GI50 [10] [nM] | GI50 [11] [nM] | EC50 [12] [nM] | SMILES
173 | 148 | 280 | 253 | 478 | 262 | 1180 | 219 | 1000 | 176 | 579 | – | COc1ccccc1-c1nnc2n1N=C(c1ccc(O)cc1)CS2 [Example 7, 6-(4-Hydroxyphenyl)-3-(2-methoxyphenyl)-7H-[1,2,4]triazolo[3,4-b][1,3,4]thiadiazine hydrobromide]
300 | 267 | 612 | 254 | 431 | 306 | 1670 | 315 | 746 | 173 | 618 | – | COc1ccccc1-c1nnc2n1N=C(c1ccc(OCCO)cc1)CS2 [Example 10, 6-(4-(2-Hydroxyethoxy)phenyl)-3-(2-methoxyphenyl)-7H-[1,2,4]triazolo[3,4-b][1,3,4]thiadiazine]
760 | 61 | 71 | 20 | 55 | 20 | 50 | 7 | 15 | 5 | 6 | – | COc1cc(OC)cc(-c2nnc3n2N=C(c2ccc(C)cc2)CS3)c1 [Example 12, 3-(3,5-Dimethoxyphenyl)-6-(4-methylphenyl)-7H-[1,2,4]triazolo[3,4-b][1,3,4]thiadiazine hydrochloride]
625 | 101 | 189 | 73 | 52 | 69 | 165 | 51 | 97 | 50 | 18 | – | COc1cc(-c2nnc3n2N=C(c2ccc(C)cc2)CS3)cc(OC)c1O [Example 13, 3-(3,5-Dimethoxy-4-hydroxyphenyl)-6-(4-methylphenyl)-7H-[1,2,4]triazolo[3,4-b][1,3,4]thiadiazine hydrobromide]
396 | 65 | 107 | 131 | 198 | 125 | 1010 | 87 | 838 | 300 | 137 | – | COc1ccc(-c2nnc3n2N=C(c2ccc(C)cc2)CS3)cc1OC [Example 14, 3-(3,4-Dimethoxyphenyl)-6-(4-methylphenyl)-7H-[1,2,4]triazolo[3,4-b][1,3,4]thiadiazine hydrobromide]
323 | 226 | 284 | 313 | 619 | 316 | – | – | – | – | – | 1260 | COc1cc(-c2nnc3n2N=C(c2ccccc2)CS3)cc(OC)c1OC [Example S1, 3-(3,4,5-Trimethoxyphenyl)-6-phenyl-7H-[1,2,4]triazolo[3,4-b][1,3,4]thiadiazine]
2580 | 519 | > 10000 | 510 | 656 | 498 | – | – | – | – | – | 2580 | CCOc1ccc(C2=Nn3c(nnc3-c3cc(OC)c(OC)c(OC)c3)SC2)cc1 [Example T1, 3-(3,4,5-Trimethoxyphenyl)-6-(4-ethoxyphenyl)-7H-[1,2,4]triazolo[3,4-b][1,3,4]thiadiazine]
2440 | 1230 | > 10000 | 1180 | 2330 | 1270 | – | – | – | – | – | 2420 | COc1ccc(-c2nnc3n2N=C(c2cc(OC)ccc2OC)CS3)cc1 [H, 3-(4-Methoxyphenyl)-6-(2,5-dimethoxyphenyl)-7H-[1,2,4]triazolo[3,4-b][1,3,4]thiadiazine]
3270 | 2550 | > 10000 | > 10000 | > 1000 | > 1000 | – | – | – | – | – | 2930 | COc1ccc(-c2nnc3n2N=C(c2ccc4c(c2)OCO4)CS3)cc1 [J, 3-(4-Methoxyphenyl)-6-(3,4-methylenedioxyphenyl)-7H-[1,2,4]triazolo[3,4-b][1,3,4]thiadiazine]
> 10000 | 1630 | > 10000 | > 10000 | > 1000 | > 1000 | – | – | – | – | – | > 10000 | Clc1cccc(-c2nnc3n2N=C(c2ccc4c(c2)OCO4)CS3)c1 [S, 3-(3-Chlorophenyl)-6-(3,4-methylenedioxyphenyl)-7H-[1,2,4]triazolo[3,4-b][1,3,4]thiadiazine]
4130 | 1360 | 3180 | 558 | 735 | 593 | – | – | – | – | – | 2850 | COc1cccc(-c2nnc3n2N=C(c2ccc(OC)c(OC)c2)CS3)c1 [Y, 3-(3-Methoxyphenyl)-6-(3,4-dimethoxyphenyl)-7H-[1,2,4]triazolo[3,4-b][1,3,4]thiadiazine]
